According to patent US9889180B2, “Method of treating cancer” (Agency for Science, Technology and Research, priority 2012, dated 2018):

Experiments:
[1] = tested on: IFNGR1 expression and STAT1 activation; experiment: Western blot of IFNGR1 and IFN signaling in T47D cells; format: cell-based, human
Procedure: (§1) Western Blotting was performed as described previously. Briefly, Cells were scraped, collected, and lysed in RIPA buffer. To release histones from chromatin, cell lysates were further sonicated for 15 sec using a XL2000 Microson Ultrasonic Processor (Misonix). Equal amounts of protein (30 μg) were separated on SDS-polyacrylamide gels and transferred to PVDF membranes. The blots were probed with antibodies against EED (07-368), SUZ12 (07-379), trimethylated H3-K27 (07-449), Acetyl-Histone H3 (06-599), which were purchased from Upstate Biotechnology. IFNGR1 (GIR-94) and anti-IFI16 (1G7) were purchased from Santa Cruz. EZH2 phospho S21 (00388) was purchased from Bethyl Laboratories. EZH2 (AC22), P110α PI3K, p-AKT (T308), p-AKT (S473), pSTAT1Y701, total STAT1, Histone H3 (3H1), Beclin-1 and cleaved PARP were purchased from Cell Signaling. Myc and Actin were purchased from Roche Applied Science and Sigma-Aldrich, respectively.

RWPE1-MYC cells = experiment: FACS cell death analysis in RWPE1-MYC cells; format: cell-based, human; conditions: DZNep (2.5 μM) for 3 days with increasing doses of IFN-γ
Procedure: (§2) For the assessment of cell death, cells were harvested in 70% ethanol. Fixed cells were stained with Propidium Iodide (P.I) (50 μg/mL). The stained cells were analyzed for DNA content by FACS in a FACSCalibur (Becton Dickinson Instrument). % of cell death was defined as the sub-G1 population quantified using the CellQuest software (Becton Dickinson). The percentage of dead cells or sub-G1 cells was calculated by comparing the results of each experiment to the results from DMSO-treated cells. Each assay was repeated a minimum of three times, with results reported as means+s.e.m.

RWPE1-PI3K cells = experiment: FACS cell death analysis in RWPE1-PI3K cells; format: cell-based, human; conditions: DZNep (2.5 μM) for 3 days with increasing doses of IFN-γ
Procedure: as §2

EZH2/PRC2 and H3K27me3 = biological target: T1, EZH2/PRC2 and H3K27me3 (Homo sapiens, UniProt Q15910); experiment: Western blot of PRC2 proteins and H3K27me3 in DU145 cells; format: cell-based; conditions: DZNep
T1 construct: endogenous in cells; host or cells: DU145 (named by the earlier reading of the assay)
T1 sequence (Q15910 whole entry): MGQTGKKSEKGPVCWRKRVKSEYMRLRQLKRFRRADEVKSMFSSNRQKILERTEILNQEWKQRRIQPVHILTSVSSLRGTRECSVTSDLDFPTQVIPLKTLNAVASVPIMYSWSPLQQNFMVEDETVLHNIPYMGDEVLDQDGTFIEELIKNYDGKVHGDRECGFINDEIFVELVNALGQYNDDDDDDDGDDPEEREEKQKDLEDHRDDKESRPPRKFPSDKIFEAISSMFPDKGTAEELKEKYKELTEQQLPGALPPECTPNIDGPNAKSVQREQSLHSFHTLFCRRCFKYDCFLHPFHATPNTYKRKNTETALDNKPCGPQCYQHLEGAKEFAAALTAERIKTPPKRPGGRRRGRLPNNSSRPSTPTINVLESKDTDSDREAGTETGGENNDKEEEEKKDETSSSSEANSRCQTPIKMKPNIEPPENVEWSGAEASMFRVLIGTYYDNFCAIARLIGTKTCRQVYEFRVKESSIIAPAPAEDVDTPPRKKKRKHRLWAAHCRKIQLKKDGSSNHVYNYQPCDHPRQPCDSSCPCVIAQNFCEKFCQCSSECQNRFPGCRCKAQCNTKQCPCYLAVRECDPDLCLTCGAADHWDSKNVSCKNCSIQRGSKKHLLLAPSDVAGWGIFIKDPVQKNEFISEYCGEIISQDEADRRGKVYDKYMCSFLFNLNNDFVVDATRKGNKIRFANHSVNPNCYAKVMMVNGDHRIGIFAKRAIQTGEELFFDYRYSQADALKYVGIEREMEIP
T1 sequence (O75530 whole entry partner): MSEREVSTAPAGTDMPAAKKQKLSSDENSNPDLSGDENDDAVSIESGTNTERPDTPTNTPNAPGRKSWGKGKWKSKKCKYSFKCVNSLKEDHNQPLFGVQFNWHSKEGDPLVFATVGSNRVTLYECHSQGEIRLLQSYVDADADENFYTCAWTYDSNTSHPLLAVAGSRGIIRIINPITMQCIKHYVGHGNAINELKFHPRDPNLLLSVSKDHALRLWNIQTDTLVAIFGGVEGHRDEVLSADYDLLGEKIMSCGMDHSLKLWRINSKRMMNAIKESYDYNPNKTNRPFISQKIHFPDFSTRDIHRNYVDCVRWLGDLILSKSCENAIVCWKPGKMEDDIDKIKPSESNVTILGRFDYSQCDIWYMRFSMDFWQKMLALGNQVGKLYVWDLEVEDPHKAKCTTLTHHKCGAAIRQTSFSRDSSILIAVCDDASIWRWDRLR
T1 sequence (Q15022 whole entry partner): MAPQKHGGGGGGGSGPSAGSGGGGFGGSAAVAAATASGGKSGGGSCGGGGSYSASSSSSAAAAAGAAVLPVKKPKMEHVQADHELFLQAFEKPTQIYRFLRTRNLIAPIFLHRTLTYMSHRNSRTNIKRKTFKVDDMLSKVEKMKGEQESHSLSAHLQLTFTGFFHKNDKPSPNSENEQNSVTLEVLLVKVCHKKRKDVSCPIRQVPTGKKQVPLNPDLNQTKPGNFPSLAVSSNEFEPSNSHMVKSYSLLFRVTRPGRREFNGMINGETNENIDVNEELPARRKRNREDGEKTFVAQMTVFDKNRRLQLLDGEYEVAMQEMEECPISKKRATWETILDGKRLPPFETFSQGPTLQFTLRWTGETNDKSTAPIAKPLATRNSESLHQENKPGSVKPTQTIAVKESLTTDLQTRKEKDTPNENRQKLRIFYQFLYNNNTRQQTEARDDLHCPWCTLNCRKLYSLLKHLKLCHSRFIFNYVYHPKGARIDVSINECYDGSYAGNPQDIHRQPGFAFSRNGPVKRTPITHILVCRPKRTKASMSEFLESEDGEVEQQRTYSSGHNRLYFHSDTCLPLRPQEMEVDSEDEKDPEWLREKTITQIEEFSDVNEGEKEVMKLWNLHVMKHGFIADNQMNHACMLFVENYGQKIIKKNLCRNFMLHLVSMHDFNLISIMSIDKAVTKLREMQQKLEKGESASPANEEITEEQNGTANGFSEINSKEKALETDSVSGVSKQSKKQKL
Procedure: as §1

IFNGR1 expression = experiment: qRT-PCR of IFNGR1 and IFNAR1 in RWPE1-MYC cells; format: cell-based, human
Procedure: (§3) Target-specific siRNA and non-targeting control siRNA were purchased from 1st Base Singapore and Integrated DNA technologies (IDT) with the following target sequences respectively: EZH2 siRNA: 5′-GACUCUGAAUGCAGUUGCU-3′ (SEQ ID NO: 1); MYC siRNA: 5′-[…]-3′ (SEQ ID NO:2). All siRNA were designed by 1st Base Singapore and IDT respectively. For transfection, 30 nM siRNAs were used to transfect cells. 48 h after transfection cell pellets were collected and subjected indicated assays.
(§4) Total RNA was isolated by using Trizol (Invitrogen) and purified with the RNeasy Mini Kit (Qiagen). The microarray hybridization was performed using the Illumina Gene Expression Sentrix BeadChip HumanRef-8_V3, and data analysis was performed by GeneSpring software from Agilent Technologies as described previously. The analyzed gene sets by GeneSpring were next subjected to Ingenuity Pathway Analysis (IPA) for gene ontology (GO) analysis. Reverse transcription and quantitative PCR assays were performed using High Capacity cDNA Archive kit and KAPA SyBr Fast qPCR kit (KAPA biosystems). For quantification of mRNA levels, 18S level was used as an internal control. All reactions were analyzed in an Applied Biosystems PRISM 7500 Fast Real-Time PCR system in 96-well plate format.

LNCaP cells = experiment: Cell proliferation assay (CellTiter-Glo) in LNCaP cells; format: cell-based, human; conditions: siRNA knockdown combined with IFN-γ treatment
Procedure: (§5) The optimal cell seeding was determined empirically for all cell lines by examining the growth of a wide range of seeding densities in a 96-well format to identify conditions that permitted proliferation for 6 days. Cells were then plated at the optimal seeding density 24 h before siRNA or drug treatment in triplicate. Plates were incubated for 6 days at 37° C. in 5% CO2. Cells were then lysed with CellTiter-Glo (CTG) (Promega) and chemiluminescent signal was detected with a microplate reader (TECAN). In addition, an untreated plate of cells was harvested at the time of drug or siRNA addition (T0) to quantify the starting number of cells. CTG values obtained after the 6 day treatment were expressed as percentages of the T0 value and plotted against time of treatment. Cells received 1-5 μM of DZNep, 25 ng/mL of IFN-γ and 0.1-2.5 μM of GSK343 unless stated otherwise for 72-96 h.

[2] = tested on: PC3-derived prostatospheres; experiment: Prostatosphere formation assay, PC3; format: cell-based, human; conditions: EZH2 knockdown in combination with IFN-γ, 7 days
[3] = tested on: JAK2 phosphorylation (Tyr1007/1008); experiment: pJAK2 and total JAK2 ELISA assay in DU145 cells; format: cell-based, human; conditions: in response to IFN-γ (25 ng/mL) stimulation
Procedure: pJAK2 levels were assessed using an ELISA assay kit (Tyr1007/1008, Life Technologies) and total JAK2 level with JAK2 (total) ELISA assay kit. Cells were first lysed with RIPA buffer and processed in the same way as western blot samples. pJAK2 and total JAK2 levels were determined by performing the ELISA assay on the processed cell lysates according to the manufacturer's protocol. The results were expressed as fold change after normalizing the pJAK2 (Tyr1007/1008) level to the total JAK2 level.

[4] = tested on: IFN responsive genes (MX1, IRF1, IFI16); experiment: qRT-PCR of IFN responsive genes in PC3 cells; format: cell-based, human; conditions: in response to IFN-γ stimulation
Procedure: as §3, §4

[5] = tested on: DU145-derived prostatospheres; experiment: Prostatosphere formation assay, DU145; format: cell-based, human; conditions: EZH2 knockdown in combination with IFN-γ, 7 days
Procedure: Prostatospheres were generated according to protocols known to the skilled person in the art. In order to obtain prostatospheres from either DU145 or LNCaP, exponentially growing cultures were dissociated to single cells by standard trypsinization, washed three times with PBS and plated at a density of 1×10^4 cells/well in 6-well ultra-low attachment plates (Corning) containing 3 ml of SCM medium (DMEM:F12 plus 10 ng/mL bFGF, 20 ng/mL EGF, […], and 0.4% BSA) supplemented with 1% KO serum replacement (Invitrogen/Gibco). The cells were treated with DZNep or IFN-γ as indicated the next day and cultured for 7 days. 7 days old prostatospheres formed were stained with 4 μg/ml p-Iodonitrotetrazolium Violet (INT) overnight and were counted and analyzed using a GelCount™ automatic plate scanner (Oxford Optronics) and GelCount Version 0.025.1 software (Oxford Optronics). Plates were scanned at 1200 dpi and the colony detection algorithm was optimized for each cell type and culture time.

DU145 cells = experiment: Cell proliferation assay (CellTiter-Glo) in DU145 cells; format: cell-based, human; conditions: siRNA knockdown combined with IFN-γ treatment
Procedure: as §5

Row | Molecule | IFNGR1 expression [1] | STAT1 activation and PARP cleavage ([1]; DZNep co-treated with IFN-γ) | induction of apoptosis / cell death (RWPE1-MYC cells) | induction of apoptosis / cell death (RWPE1-PI3K cells) | PRC2 protein levels (EZH2, EED, SUZ12) (EZH2/PRC2 and H3K27me3) | depletion of H3K27me3 (EZH2/PRC2 and H3K27me3) | IFNGR1 expression after knockdown (IFNGR1 expression) | cell growth after knockdown (LNCaP cells) | tumorsphere formation after knockdown [2] | JAK2 phosphorylation after knockdown [3] | activation of IFN genes after knockdown [4] | tumorsphere formation after knockdown [5] | cell growth after knockdown (DU145 cells)
1 | Cl.Nc1nccc2c1ncn2[C@@H]1C=C(CO)[C@@H](O)[C@H]1O [DZNep, (−)-1-[(1R,4R,5S)-3-(Hydroxymethyl)-4,5-dihydroxy-2-cyclopenten-1-yl]4-aminoimidazo[4,5-c]pyridine hydrochloride] | restored the IFNGR1 expression | increased STAT1 activation and PARP cleavage | synergistic effect | but not RWPE1-PI3K cells | depleted EZH2, as well as the other two PRC2 proteins EED and SUZ12 | much lower efficiency in depleting H3K27me3 |  |  |  |  |  |  | 
2 | EZH2 knockdown: EZH2 siRNA: 5′-GACUCUGAAUGCAGUUGCU-3′ (SEQ ID NO: 1) (other strand not given here) |  |  |  |  |  |  | restore the expression of IFNGR1 | no such an effect was seen | efficiently inhibited the tumorsphere formation | enhanced | robust activation of IFN genes | efficiently inhibited the tumorsphere formation | remarkable synergy in cell growth regression
